The test system of the test is HCC 1806 cells. In words: Cell proliferation inhibitory effect on human breast cancer cell line (crystal violet, 72 hours). It is filed as cell-based. The conditions noted are these: read-out: Cell growth suppression IC50. The protocol:
Human derived breast cancer cell line HCC 1806 cells were daily passaged at a cell density not exceeding 80% in ATCC recommended Roswell Park Memorial Institute medium (RPMI-1640) containing 10% fetal bovine serum (FBS). In order to start the test of cell proliferation inhibitory activity, HCC 1806 cells were suspended in the above medium, after seeing at 180 μl in each well of a 96-well flat bottom plate so that the number of cells per well was 2,000, the cells were cultured at 37° C. for 1 day in an incubator containing 5% carbon dioxide gas. On the next day, the test compound was dissolved in DMSO, and 20 μl of a drug additive solution diluted serially with distilled water to 10 times of the final concentration was added to each well of the culture plate of the cells, and the cells were cultured at 37° C. for 72 hours in an incubator containing 5% carbon dioxide gas. […] 100 μL of an extract solution (0.1 N NaH2PO4: 100% ethanol=1:1) was added to each well and mixed, and the mixture was measured at a wavelength of 540 nm using a plate reader (MTP-450 manufactured by Corona Electric Co., Ltd.). […]
T: Absorbance of well to which test compound was added
C: Absorbance of wells to which no test compound was added
B: Absorbance of wells to which no cell suspension was added

These results are taken from patent US11634395B2, “Sulfonamide compound or salt thereof” (Taiho Pharmaceutical Co., Ltd., priority 2016, dated 2023).

In general, IC50 refers to the point on the concentration scale where inhibition reaches its midpoint. For `Cc1ccc(F)c([C@@H](C)[C@H](NS(=O)(=O)c2ccc(C(F)(F)F)c3c2OCCC3(C)O)c2n[nH]c(=O)o2)c1C` (single isomer, unassigned) [Example 225A], the IC50 was determined as 600 nM.
